Test results published in US6605628B1, “Method of using 5-(arysulfonyl)-, 5-(arylsulfanyl)-and 5-(arylsulfanyl)thiazolidine-2,4-diones for inhibition of farnesyl-protein transferase” (Wyeth Holdings Corporation, priority 2001, dated 2003).

Assays:
[1] = target: T1, FPTase (Homo sapiens, UniProt P49354+P49356); test: in vitro FTase Inhibition Assay, K-Ras used as substrate for farnesylation; assay type: biochemical; conditions: Table I
[2] = target: T1, FPTase; test: in vitro FTase Inhibition Assay, H-Ras used as substrate for farnesylation; assay type: biochemical; conditions: Table I, read-out: IC50 H-Ras*

IC50 [1] [nM] | IC50 [2] [nM] | melting point | Compound
600 to 5000 | 140 to 170 | 196 °C (dec.) | Cc1ccc(Cl)cc1C#CCCCC1(S(=O)(=O)c2ccc(OC(F)(F)F)cc2)SC(=O)NC1=O (stereo not drawn) [Example 139, 5-[5-(5-Chloro-2-methylphenyl)pent-4-ynyl]-5-(4-trifluoromethoxybenzene-sulfonyl)-thiazolidine-2,4-dione]
300 to 340 | 21 to 32 | 93 to 99 °C | Cc1cc(Cl)ccc1C#CCCCC1(S(=O)(=O)c2ccc(I)cc2)SC(=O)NC1=O (stereo not drawn) [Example 141, 5-(5-(4-Chloro-2-methylphenyl)-pent-4-ynyl]-5-(4-iodobenzene-sulfonyl)-thiazolidine-2,4-dione]
320 to 550 | 40 to 41 | 146 to 147 °C | Cc1cc(Br)ccc1C#CCCCC1(S(=O)(=O)c2ccc(I)cc2)SC(=O)NC1=O (stereo not drawn) [Example 144, 5-[5-(4-Bromo-2-methylphenyl)pent-4-ynyl]-5-(4-iodobenzenesulfonyl)-thiazolidine-2,4-dione]
23 to 31 | 4.5 to 120 | 172 to 175 °C | Cc1ccc(NC(=O)OC(C)(C)C)cc1C#CCCCC1(S(=O)(=O)c2ccc(I)cc2)SC(=O)NC1=O (stereo not drawn) [Example 148, (3-{5-[5-(4-Iodobenzenesulfonyl)-2,4-dioxothiazolidin-5-yl]-pent-1-ynyl}-4-methylphenyl)carbamic Acid tert-Butyl Ester]
16 to 68 | 7.4 to 32 | 116 to 118 °C | COc1ccc(S(=O)(=O)C2(CCCC#Cc3cc(NC(=O)OC(C)(C)C)ccc3C)SC(=O)NC2=O)cc1 (stereo not drawn) [Example 150, (3-{5-[5-(4-Methoxybenzenesulfonyl)-2,4-dioxothiazolidin-5-yl]pent-1-ynyl}-4-methylphenyl)carbamic Acid tert-Butyl Ester]
100 to 230 | 11 to 16 | 205 to 208 °C | COc1ccc(S(=O)(=O)C2(CCCC#Cc3cc(C(=O)NC(C)(C)C)ccc3C)SC(=O)NC2=O)cc1 (stereo not drawn) [Example 152, N-tert-Butyl-3-{5-[5-(4-methoxybenzenesulfonyl)-2,4-dioxothiazol-idin-5-yl]pent-1-ynyl}-4-methyl-benzamide]
1000 to 6100 | 170 to 200 | 160 to 163 °C | COc1ccc(S(=O)(=O)C2(CCCC#Cc3ccc(C(F)(F)F)cc3)SC(=O)NC2=O)cc1 (stereo not drawn) [Example 153, 5-(4-Methoxybenzenesulfonyl)-5-[5-(4-trifluoromethylphenyl)pent-4-ynyl]thiazolidine-2,4-dione]
1000 to 2500 | 70 to 150 | 120 to 123 °C | COc1ccc(S(=O)(=O)C2(CCCC#Cc3ccc(OC(F)(F)F)cc3)SC(=O)NC2=O)cc1 (stereo not drawn) [Example 154, 5-(4-Methoxybenzenesulfonyl)-5-[5-(4-trifluoromethoxyphenyl)pent-4-ynyl]thiazolidine-2,4-dione]
420 to 440 | 10 to 320 | 119 to 121 °C | COC(=O)c1ccc(C)c(C#CCCCC2(S(=O)(=O)c3ccc(OC)cc3)SC(=O)NC2=O)c1 (stereo not drawn) [Example 155, 3-{5-[5-(4-Methoxybenzenesulfonyl)-2,4-dioxo-thiazolidin-5-yl]-pent-1-ynyl}-4-methylbenzoic Acid Methyl Ester]
5000 | 270 | 134 to 138 °C | Cc1ccc(S(=O)(=O)C2(CCCC#Cc3ccc(C(C)(C)C)cc3)SC(=O)NC2=O)cc1 (stereo not drawn) [Example 157, 5-[5-(4-tert-Butylphenyl)pent-4-ynyl]-5-(toluene-4-sulfonyl)thiazolidine-2,4-dione]
3800 | 150 | 174 to 178 °C | COc1ccc(S(=O)(=O)C2(CCCC#Cc3ccc(C#N)cc3)SC(=O)NC2=O)cc1 (stereo not drawn) [Example 158, 4-(5-[5-(4-Methoxybenzenesulfonyl)-2,4-dioxo-thiazolidin-5-yl]pent-1-ynyl}benzonitrile]
> 10000 | 650 | 190 to 193 °C | Cc1ccc(S(=O)(=O)C2(CCCC#Cc3ccc(S(C)(=O)=O)cc3)SC(=O)NC2=O)cc1 (stereo not drawn) [Example 159, 5-[5-(4-Methanesulfonylphenyl)-pent-4-ynyl]-5-(toluene-4-sulfonyl)-thiazolidine-2,4-dione]
4000 | 1210 | 194 to 195 °C | O=C1NC(=O)C(CCCC#Cc2ccc(-n3cccc3)cc2)(S(=O)(=O)c2ccc(I)cc2)S1 (stereo not drawn) [Example 162, 5-(4-Iodo-benzenesulfonyl)-5-[5-(4-pyrrol-1-yl-phenyl)pent-4-ynyl]-thiazolidine-2,4-dione]
> 10000 | 150 | 133 to 135 °C | COc1cccc(S(=O)(=O)C2(CCCC#Cc3cccs3)SC(=O)NC2=O)c1 (stereo not drawn) [Example 164, 5-(3-Methoxybenzenesulfonyl)-5-(5-thiophen-2-yl-pent-4-ynyl)-thiazolidine-2,4-dione]
5300 | 150 | 60 to 66 °C | COc1ccc(S(=O)(=O)C2(CCCC#Cc3cccs3)SC(=O)NC2=O)cc1 (stereo not drawn) [Example 166, 5-(4-Methoxybenzenesulfonyl)-5-(5-thiophen-2-yl-pent-4-ynyl)-thiazolidine-2,4-dione]
1800 | 100 | 179 to 180 °C | Cc1ccc(S(=O)(=O)C2(CC#Cc3ccc(-c4ccccc4)cc3)SC(=O)NC2=O)cc1 (stereo not drawn) [Example 169, 5-(3-Biphenyl-4-yl-prop-2-ynyl)-5-(toluene-4-sulfonyl)-thiazolidine-2,4-dione]
4700 | 380 | 64 to 66 °C | Cc1ccc(S(=O)(=O)C2(CC#Cc3ccc(Oc4ccccc4)cc3)SC(=O)NC2=O)cc1 (stereo not drawn) [Example 170, 5-[3-(4-Phenoxyphenyl)prop-2-ynyl]-5-(toluene-4-sulfonyl)-thiazolidine-2,4-dione]
